{"source": "patent US10080739B2", "about": "“Aryl imidazoles and their use as anti-cancer agents” (Aptose Biosciences Inc., priority 2003, dated 2018)", "key": {"NEK2": {"biological_target": "T1, NEK2 (Homo sapiens, UniProt P51955)", "T1 construct": "purchased Upstate Biotechnologies (kinase profiler service)", "test": "kinase profiler, NEK2", "format": "biochemical", "details": "10 μM compound, 100 μM ATP, mean of % control", "description": "(§1) Compound 45 was tested for its ability to function as a kinase inhibitor using the kinase profiler service from Upstate Biotechnologies. The general protocol employed is as follows: recombinant kinases were incubated with specific substrates, 10 mM MgAcetate, and [γ-^33P-ATP]. The reaction was initiated by the addition of MgATP mix. After incubation at room temperature for 40 minutes, the reaction was stopped by the addition of 5 μl of a 3% phosphoric acid solution. 10 μl of the reaction was then spotted on to a P30 filtermat and washed 3 times for 5 min. in 75 mM phosphoric acid and once in methanol prior to drying and scintillation counting. Each reaction was performed in duplicate with 100 μM ATP −/+10 μM compound 45. Results are presented in Table IV and are expressed as the mean of % control (no compound). PI 3-kinase-γ (PI3K-γ) activity was determined with the PIProfiler™ assay, which measures the binding of the GRP1 pleckstrin homology (PH) domain to PIP3, the product of PI3K acting on its physiological substrate PIP2."}, "GSK3α": {"biological_target": "T2, GSK3α (Homo sapiens, UniProt P49840)", "T2 construct": "purchased Upstate Biotechnologies (kinase profiler service)", "T2 sequence (P49840 whole entry)": "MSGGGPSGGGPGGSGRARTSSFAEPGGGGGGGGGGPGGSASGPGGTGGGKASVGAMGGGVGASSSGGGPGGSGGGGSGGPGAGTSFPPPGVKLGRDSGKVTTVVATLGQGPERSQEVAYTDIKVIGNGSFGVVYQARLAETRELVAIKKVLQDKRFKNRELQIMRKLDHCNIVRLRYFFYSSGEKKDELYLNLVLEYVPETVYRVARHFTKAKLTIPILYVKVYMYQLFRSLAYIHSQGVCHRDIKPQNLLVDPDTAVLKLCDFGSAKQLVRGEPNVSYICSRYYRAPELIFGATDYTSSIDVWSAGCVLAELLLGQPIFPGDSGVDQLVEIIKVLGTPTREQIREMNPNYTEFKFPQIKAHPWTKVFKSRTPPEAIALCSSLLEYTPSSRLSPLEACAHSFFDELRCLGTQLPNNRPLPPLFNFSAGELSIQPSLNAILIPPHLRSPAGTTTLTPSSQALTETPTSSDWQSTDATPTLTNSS", "test": "kinase profiler, GSK3α", "format": "biochemical", "details": "10 μM compound, 100 μM ATP, mean of % control", "description": "as §1"}, "PI3K-β": {"biological_target": "T3, PI3K-β (Homo sapiens, UniProt P42338)", "T3 construct": "purchased Upstate Biotechnologies (kinase profiler service)", "test": "kinase profiler, PI3K-β", "format": "biochemical", "details": "10 μM compound, mean of % control"}, "[1]": {"tested_on": "MDA-MB-231 breast adenocarcinoma cells", "test": "morphological changes (vacuoles), MDA-MB-231", "format": "cell-based, human", "details": "MDA-MB-231 cells, treatment for 24 hours", "text": "These vacuoles are not formed in DMSO- or doxorubicin-treated cells. Moreover, the nuclear membrane is no longer evident in the phase-contrast images of cells treated with compound 45, even though the nucleus is still intact, as shown by DAPI staining."}, "EGFR": {"biological_target": "T4, EGFR (Homo sapiens, UniProt P00533)", "T4 construct": "purchased Upstate Biotechnologies (kinase profiler service)", "T4 sequence (P00533 25-1210)": "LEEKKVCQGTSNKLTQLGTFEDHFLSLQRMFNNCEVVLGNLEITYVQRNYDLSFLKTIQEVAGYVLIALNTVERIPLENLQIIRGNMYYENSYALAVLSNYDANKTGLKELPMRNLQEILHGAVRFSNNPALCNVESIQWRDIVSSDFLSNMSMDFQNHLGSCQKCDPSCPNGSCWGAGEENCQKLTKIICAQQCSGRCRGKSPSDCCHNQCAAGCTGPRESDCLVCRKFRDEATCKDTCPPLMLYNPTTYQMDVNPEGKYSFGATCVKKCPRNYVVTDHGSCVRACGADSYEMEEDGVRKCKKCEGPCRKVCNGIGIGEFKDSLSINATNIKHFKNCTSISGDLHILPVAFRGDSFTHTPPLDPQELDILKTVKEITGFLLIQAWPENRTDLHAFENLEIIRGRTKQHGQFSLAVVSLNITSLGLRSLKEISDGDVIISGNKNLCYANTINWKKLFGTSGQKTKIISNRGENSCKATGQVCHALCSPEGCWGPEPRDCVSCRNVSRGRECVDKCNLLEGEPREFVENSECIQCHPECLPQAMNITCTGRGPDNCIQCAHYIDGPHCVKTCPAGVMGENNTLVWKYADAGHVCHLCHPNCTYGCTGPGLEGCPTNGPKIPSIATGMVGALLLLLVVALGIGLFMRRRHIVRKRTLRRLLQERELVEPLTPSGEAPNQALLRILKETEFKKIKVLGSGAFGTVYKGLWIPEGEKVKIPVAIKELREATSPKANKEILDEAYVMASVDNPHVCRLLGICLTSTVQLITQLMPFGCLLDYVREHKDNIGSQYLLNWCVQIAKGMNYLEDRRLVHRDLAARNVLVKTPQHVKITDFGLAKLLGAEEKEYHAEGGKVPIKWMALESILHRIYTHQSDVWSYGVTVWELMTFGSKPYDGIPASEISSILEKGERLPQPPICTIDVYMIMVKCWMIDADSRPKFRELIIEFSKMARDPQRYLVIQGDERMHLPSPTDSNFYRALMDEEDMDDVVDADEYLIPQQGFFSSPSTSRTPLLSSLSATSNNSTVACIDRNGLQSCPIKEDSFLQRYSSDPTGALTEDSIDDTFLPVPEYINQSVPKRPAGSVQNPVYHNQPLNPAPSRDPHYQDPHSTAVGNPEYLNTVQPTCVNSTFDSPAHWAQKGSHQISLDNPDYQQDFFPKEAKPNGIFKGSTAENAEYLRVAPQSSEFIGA", "test": "kinase profiler, EGFR", "format": "biochemical", "details": "10 μM compound, 100 μM ATP, mean of % control", "description": "as §1"}, "CDK7/cyclinH/MAT1": {"biological_target": "T5, CDK7/cyclinH/MAT1 (Homo sapiens, UniProt P50613)", "T5 construct": "purchased Upstate Biotechnologies (kinase profiler service)", "test": "kinase profiler, CDK7/cyclinH/MAT1", "format": "biochemical", "details": "10 μM compound, 100 μM ATP, mean of % control", "description": "as §1"}, "ROCK-II": {"biological_target": "T6, ROCK-II (Homo sapiens, UniProt O75116)", "T6 construct": "purchased Upstate Biotechnologies (kinase profiler service)", "test": "kinase profiler, ROCK-II", "format": "biochemical", "details": "10 μM compound, 100 μM ATP, mean of % control", "description": "as §1"}, "SAPK2a": {"biological_target": "T7, SAPK2a (Homo sapiens, UniProt Q16539)", "T7 construct": "purchased Upstate Biotechnologies (kinase profiler service)", "test": "kinase profiler, SAPK2a", "format": "biochemical", "details": "10 μM compound, 100 μM ATP, mean of % control", "description": "as §1"}, "PAK2": {"biological_target": "T8, PAK2 (Homo sapiens, UniProt Q13177)", "T8 construct": "purchased Upstate Biotechnologies (kinase profiler service)", "test": "kinase profiler, PAK2", "format": "biochemical", "details": "10 μM compound, 100 μM ATP, mean of % control", "description": "as §1"}, "CDK3/cyclinE": {"biological_target": "T9, CDK3/cyclinE (Homo sapiens, UniProt Q00526)", "T9 construct": "purchased Upstate Biotechnologies (kinase profiler service)", "test": "kinase profiler, CDK3/cyclinE", "format": "biochemical", "details": "10 μM compound, 100 μM ATP, mean of % control", "description": "as §1"}, "FGFR3": {"biological_target": "T10, FGFR3 (Homo sapiens, UniProt P22607)", "T10 construct": "purchased Upstate Biotechnologies (kinase profiler service)", "test": "kinase profiler, FGFR3", "format": "biochemical", "details": "10 μM compound, 100 μM ATP, mean of % control", "description": "as §1"}, "TrkA": {"biological_target": "T11, TrkA (Homo sapiens, UniProt P04629)", "T11 construct": "purchased Upstate Biotechnologies (kinase profiler service)", "T11 sequence (P04629 33-796)": "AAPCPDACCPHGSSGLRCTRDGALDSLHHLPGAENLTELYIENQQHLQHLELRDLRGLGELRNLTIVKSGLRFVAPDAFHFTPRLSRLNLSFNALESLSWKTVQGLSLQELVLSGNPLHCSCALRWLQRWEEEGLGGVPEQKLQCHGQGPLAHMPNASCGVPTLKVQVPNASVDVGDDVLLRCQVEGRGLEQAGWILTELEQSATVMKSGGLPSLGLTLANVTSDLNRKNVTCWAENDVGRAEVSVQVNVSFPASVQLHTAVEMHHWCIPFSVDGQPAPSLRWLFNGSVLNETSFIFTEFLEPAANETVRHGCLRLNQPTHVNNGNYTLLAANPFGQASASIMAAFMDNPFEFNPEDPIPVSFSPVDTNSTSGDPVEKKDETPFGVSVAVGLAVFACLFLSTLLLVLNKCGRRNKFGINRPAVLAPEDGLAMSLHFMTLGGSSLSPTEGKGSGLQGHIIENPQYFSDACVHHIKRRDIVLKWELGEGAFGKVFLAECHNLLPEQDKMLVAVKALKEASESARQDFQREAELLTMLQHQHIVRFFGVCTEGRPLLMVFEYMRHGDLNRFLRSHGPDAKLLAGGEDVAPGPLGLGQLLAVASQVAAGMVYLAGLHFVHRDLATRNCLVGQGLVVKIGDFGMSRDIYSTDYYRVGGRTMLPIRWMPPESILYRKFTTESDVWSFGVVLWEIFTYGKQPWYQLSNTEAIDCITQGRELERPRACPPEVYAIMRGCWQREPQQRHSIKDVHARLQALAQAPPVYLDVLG", "test": "kinase profiler, TrkA", "format": "biochemical", "details": "10 μM compound, 100 μM ATP, mean of % control", "description": "as §1"}, "PKA": {"biological_target": "T12, PKA (Homo sapiens, UniProt P17612)", "T12 construct": "purchased Upstate Biotechnologies (kinase profiler service)", "test": "kinase profiler, PKA", "format": "biochemical", "details": "10 μM compound, 100 μM ATP, mean of % control", "description": "as §1"}, "PKBα": {"biological_target": "T13, PKBα (Homo sapiens, UniProt P31749)", "T13 construct": "purchased Upstate Biotechnologies (kinase profiler service)", "test": "kinase profiler, PKBα", "format": "biochemical", "details": "10 μM compound, 100 μM ATP, mean of % control", "description": "as §1"}, "CK2": {"biological_target": "T14, CK2 (Homo sapiens, UniProt P68400)", "T14 construct": "purchased Upstate Biotechnologies (kinase profiler service)", "test": "kinase profiler, CK2", "format": "biochemical", "details": "10 μM compound, 100 μM ATP, mean of % control", "description": "as §1"}, "[2]": {"tested_on": "human non-small cell lung cancer cells (H460)", "test": "XTT cell proliferation assay, H460 cells, 48 h", "format": "cell-based", "details": "NCI-H460, 48 h, read-out: % Survival", "description": "Selected compounds of Formula I were tested for anti-cancer activity in vitro using a human colon carcinoma cells (HT-29) and human non-small cell lung cancer cells (H460). The cells were maintained in α-MEM medium (Wisent, St-Bruno, Qc) supplemented with 10% FBS, and grown at 37° C. in an atmosphere of 5% CO2. Cells were transferred onto 150 mm tissue culture plates and grown until sub-confluency (70-80%) prior to their use.\nThe anti-cancer activity in vitro was evaluated by a cell proliferation assay based on the ability of live cells to reduce the tetrazolium salt XTT to orange coloured compounds of formazan (XTT cell proliferation kit II, Roche Applied Science, Montreal, QC).\nApproximately 4×10^3 colon cancer cells (HT-29) or 2×10^3 non-small cell lung cancer cells (NCI-H460) in 100 μl of complete culture medium were plated onto 96-well microtiter plates and incubated overnight at 37° C. The medium was then removed by inverting the plate and patting on a sterile absorbent cloth. Fifty μl of medium containing the test compound at either 25 or 100 μM, were added to the wells containing cells and incubated at 37° C. in an atmosphere of 5% CO2 for 48 h. Following incubation, 25 μl of an XTT reaction mixture (XTT at a final concentration of 0.3 mg/ml) were added to each well and the plates were incubated for a further 4 h. The absorbance of each sample was then determined at a wavelength of 490 nm/650 nm as reference. Each compound was tested in duplicate and the results are reported as averages."}, "RAF": {"biological_target": "T15, RAF (Homo sapiens, UniProt P04049)", "T15 construct": "purchased Upstate Biotechnologies (kinase profiler service)", "test": "kinase profiler, RAF", "format": "biochemical", "details": "10 μM compound, 100 μM ATP, mean of % control", "description": "as §1"}, "Rsk1": {"biological_target": "T16, Rsk1 (Homo sapiens, UniProt Q15418)", "T16 construct": "purchased Upstate Biotechnologies (kinase profiler service)", "T16 sequence (Q15418 whole entry)": "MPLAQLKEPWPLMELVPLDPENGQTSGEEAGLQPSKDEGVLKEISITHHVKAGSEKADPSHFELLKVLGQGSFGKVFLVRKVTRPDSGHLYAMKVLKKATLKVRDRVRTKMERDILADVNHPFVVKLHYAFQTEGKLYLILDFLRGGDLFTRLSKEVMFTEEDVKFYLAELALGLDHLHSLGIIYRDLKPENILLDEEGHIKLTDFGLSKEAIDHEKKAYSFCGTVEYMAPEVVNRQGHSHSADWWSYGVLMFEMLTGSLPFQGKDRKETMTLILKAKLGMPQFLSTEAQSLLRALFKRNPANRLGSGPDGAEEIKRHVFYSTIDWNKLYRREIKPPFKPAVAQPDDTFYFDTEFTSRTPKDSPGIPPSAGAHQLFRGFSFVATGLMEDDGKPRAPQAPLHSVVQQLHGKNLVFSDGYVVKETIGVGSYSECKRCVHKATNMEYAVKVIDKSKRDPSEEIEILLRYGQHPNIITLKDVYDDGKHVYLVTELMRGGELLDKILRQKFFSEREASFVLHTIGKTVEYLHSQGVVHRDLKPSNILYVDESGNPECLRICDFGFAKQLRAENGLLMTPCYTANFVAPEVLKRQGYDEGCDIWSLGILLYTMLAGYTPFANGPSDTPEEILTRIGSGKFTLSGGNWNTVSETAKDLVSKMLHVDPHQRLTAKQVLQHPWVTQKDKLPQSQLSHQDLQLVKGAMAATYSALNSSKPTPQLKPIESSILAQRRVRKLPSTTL", "test": "kinase profiler, Rsk1", "format": "biochemical", "details": "10 μM compound, 100 μM ATP, mean of % control", "description": "as §1"}, "SGK": {"biological_target": "T17, SGK (Homo sapiens, UniProt O00141)", "T17 construct": "purchased Upstate Biotechnologies (kinase profiler service)", "T17 sequence (O00141 whole entry)": "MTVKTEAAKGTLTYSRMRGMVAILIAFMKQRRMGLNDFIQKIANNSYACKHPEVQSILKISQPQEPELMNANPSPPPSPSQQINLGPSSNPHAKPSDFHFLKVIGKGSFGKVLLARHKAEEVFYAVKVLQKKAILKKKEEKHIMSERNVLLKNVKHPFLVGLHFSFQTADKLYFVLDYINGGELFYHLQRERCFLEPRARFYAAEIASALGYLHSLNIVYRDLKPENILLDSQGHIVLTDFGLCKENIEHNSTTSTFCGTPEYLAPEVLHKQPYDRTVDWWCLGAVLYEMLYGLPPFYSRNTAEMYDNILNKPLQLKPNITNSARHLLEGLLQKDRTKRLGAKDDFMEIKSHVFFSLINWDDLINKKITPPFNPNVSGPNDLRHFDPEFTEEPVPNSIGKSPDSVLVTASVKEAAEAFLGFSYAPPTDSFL", "test": "kinase profiler, SGK", "format": "biochemical", "details": "10 μM compound, 100 μM ATP, mean of % control", "description": "as §1"}, "Rse": {"biological_target": "T18, Rse (Homo sapiens, UniProt Q06418)", "T18 construct": "purchased Upstate Biotechnologies (kinase profiler service)", "test": "kinase profiler, Rse", "format": "biochemical", "details": "10 μM compound, 100 μM ATP, mean of % control", "description": "as §1"}, "MAPK2": {"biological_target": "T19, MAPK2 (Homo sapiens, UniProt P28482)", "T19 construct": "purchased Upstate Biotechnologies (kinase profiler service)", "test": "kinase profiler, MAPK2", "format": "biochemical", "details": "10 μM compound, 100 μM ATP, mean of % control", "description": "as §1"}, "MST2": {"biological_target": "T20, MST2 (Homo sapiens, UniProt Q13188)", "T20 construct": "purchased Upstate Biotechnologies (kinase profiler service)", "test": "kinase profiler, MST2", "format": "biochemical", "details": "10 μM compound, 100 μM ATP, mean of % control", "description": "as §1"}, "SAPK4": {"biological_target": "T21, SAPK4 (Homo sapiens, UniProt O15264)", "T21 construct": "purchased Upstate Biotechnologies (kinase profiler service)", "T21 sequence (O15264 whole entry)": "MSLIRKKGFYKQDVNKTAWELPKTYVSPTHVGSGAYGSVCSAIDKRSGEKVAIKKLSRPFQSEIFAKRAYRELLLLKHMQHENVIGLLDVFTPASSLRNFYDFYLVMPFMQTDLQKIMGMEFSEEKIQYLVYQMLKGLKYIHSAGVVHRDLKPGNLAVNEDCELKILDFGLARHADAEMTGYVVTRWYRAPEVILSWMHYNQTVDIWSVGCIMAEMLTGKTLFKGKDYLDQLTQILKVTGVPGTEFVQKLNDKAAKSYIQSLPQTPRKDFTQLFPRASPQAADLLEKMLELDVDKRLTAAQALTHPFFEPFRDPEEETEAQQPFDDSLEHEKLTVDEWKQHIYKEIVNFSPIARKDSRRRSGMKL", "test": "kinase profiler, SAPK4", "format": "biochemical", "details": "10 μM compound, 100 μM ATP, mean of % control", "description": "as §1"}, "Tie2": {"biological_target": "T22, Tie2 (Homo sapiens, UniProt Q02763)", "T22 construct": "purchased Upstate Biotechnologies (kinase profiler service)", "T22 sequence (Q02763 23-1124)": "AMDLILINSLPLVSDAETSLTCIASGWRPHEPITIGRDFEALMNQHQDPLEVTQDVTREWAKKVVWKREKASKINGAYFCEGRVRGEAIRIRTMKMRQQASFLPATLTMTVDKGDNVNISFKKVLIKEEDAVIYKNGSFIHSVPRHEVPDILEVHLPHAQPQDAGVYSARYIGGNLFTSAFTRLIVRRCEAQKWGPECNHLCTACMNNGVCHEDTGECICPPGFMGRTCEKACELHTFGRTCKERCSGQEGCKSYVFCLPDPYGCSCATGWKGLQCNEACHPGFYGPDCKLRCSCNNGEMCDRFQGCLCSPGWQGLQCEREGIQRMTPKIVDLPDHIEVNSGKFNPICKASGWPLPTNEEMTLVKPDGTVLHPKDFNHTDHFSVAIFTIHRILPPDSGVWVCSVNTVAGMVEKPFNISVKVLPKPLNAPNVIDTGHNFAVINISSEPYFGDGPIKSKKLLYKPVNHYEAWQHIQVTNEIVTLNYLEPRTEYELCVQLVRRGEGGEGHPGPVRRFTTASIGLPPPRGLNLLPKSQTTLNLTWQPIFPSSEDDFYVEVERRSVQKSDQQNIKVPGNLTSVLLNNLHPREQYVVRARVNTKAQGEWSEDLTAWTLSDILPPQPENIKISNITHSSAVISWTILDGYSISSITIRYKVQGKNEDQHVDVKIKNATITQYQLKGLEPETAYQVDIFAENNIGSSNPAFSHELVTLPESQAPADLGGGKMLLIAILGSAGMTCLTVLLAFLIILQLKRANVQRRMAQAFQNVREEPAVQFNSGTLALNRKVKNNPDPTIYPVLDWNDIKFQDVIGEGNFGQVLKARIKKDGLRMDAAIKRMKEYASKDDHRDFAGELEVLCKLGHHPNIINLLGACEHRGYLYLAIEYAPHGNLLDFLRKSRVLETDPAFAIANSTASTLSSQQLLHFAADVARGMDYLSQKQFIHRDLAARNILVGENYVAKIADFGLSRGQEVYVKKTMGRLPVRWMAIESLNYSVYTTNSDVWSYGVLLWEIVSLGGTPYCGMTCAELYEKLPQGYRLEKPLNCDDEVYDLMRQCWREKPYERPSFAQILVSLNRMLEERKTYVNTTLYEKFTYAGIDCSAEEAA", "test": "kinase profiler, Tie2", "format": "biochemical", "details": "10 μM compound, 100 μM ATP, mean of % control", "description": "as §1"}, "SRC": {"biological_target": "T23, SRC (Homo sapiens, UniProt P12931)", "T23 construct": "purchased Upstate Biotechnologies (kinase profiler service)", "test": "kinase profiler, SRC", "format": "biochemical", "details": "10 μM compound, 100 μM ATP, mean of % control", "description": "as §1"}, "Ret": {"biological_target": "T24, Ret (Homo sapiens, UniProt P07949)", "T24 construct": "purchased Upstate Biotechnologies (kinase profiler service)", "test": "kinase profiler, Ret", "format": "biochemical", "details": "10 μM compound, 100 μM ATP, mean of % control", "description": "as §1"}}}
{"smiles": "Brc1ccc2[nH]cc(-c3nc4c5ccccc5c5ccccc5c4[nH]3)c2c1", "note": "[Compound 45]", "values": [{"measurement": "activity at 10 µM", "setting": "NEK2", "value": 90, "unit": "%"}, {"measurement": "activity at 10 µM", "setting": "GSK3α", "value": 96, "unit": "%"}, {"measurement": "activity at 10 µM", "setting": "PI3K-β", "value": 11, "unit": "%"}, {"measurement": "formation of vacuoles", "setting": "[1]", "value": "formation of large vacuoles within the cytoplasm"}, {"measurement": "activity at 10 µM", "setting": "EGFR", "value": 105, "unit": "%"}, {"measurement": "activity at 10 µM", "setting": "CDK7/cyclinH/MAT1", "value": 95, "unit": "%"}, {"measurement": "activity at 10 µM", "setting": "ROCK-II", "value": 86, "unit": "%"}, {"measurement": "activity at 10 µM", "setting": "SAPK2a", "value": 62, "unit": "%"}, {"measurement": "activity at 10 µM", "setting": "PAK2", "value": 89, "unit": "%"}, {"measurement": "activity at 10 µM", "setting": "CDK3/cyclinE", "value": 107, "unit": "%"}, {"measurement": "activity at 10 µM", "setting": "FGFR3", "value": 82, "unit": "%"}, {"measurement": "activity at 10 µM", "setting": "TrkA", "value": 56, "unit": "%"}, {"measurement": "activity at 10 µM", "setting": "PKA", "value": 83, "unit": "%"}, {"measurement": "activity at 10 µM", "setting": "PKBα", "value": 95, "unit": "%"}, {"measurement": "activity at 10 µM", "setting": "CK2", "value": 91, "unit": "%"}, {"measurement": "viability at 25 µM", "setting": "[2]", "value": 96, "unit": "%"}, {"measurement": "viability at 100 µM", "setting": "[2]", "value": 32.7, "unit": "%"}, {"measurement": "activity at 10 µM", "setting": "RAF", "value": 100, "unit": "%"}, {"measurement": "activity at 10 µM", "setting": "Rsk1", "value": 183, "unit": "%"}, {"measurement": "activity at 10 µM", "setting": "SGK", "value": 89, "unit": "%"}, {"measurement": "activity at 10 µM", "setting": "Rse", "value": 176, "unit": "%"}, {"measurement": "activity at 10 µM", "setting": "MAPK2", "value": 99, "unit": "%"}, {"measurement": "activity at 10 µM", "setting": "MST2", "value": 77, "unit": "%"}, {"measurement": "activity at 10 µM", "setting": "SAPK4", "value": 77, "unit": "%"}, {"measurement": "activity at 10 µM", "setting": "Tie2", "value": 109, "unit": "%"}, {"measurement": "activity at 10 µM", "setting": "SRC", "value": 102, "unit": "%"}, {"measurement": "activity at 10 µM", "setting": "Ret", "value": 82, "unit": "%"}]}
